Results published in patent publication EP4737450A1 (Longwood Pharmaceuticals (Hangzhou) Co., Ltd, priority 2023, dated 2025).
Where “and” joins values, the source holds several entries; their conditions need not be identical. Identical values can stand only once. Like-named read-outs stand apart in the source and are kept apart here.

Biological target: T1, plasma kallikrein (PKa) (Homo sapiens, UniProt P03952)
T1 construct: purchased R & D 2497-SE
Test: Inhibitory activity against plasma kallikrein in vitro (fluorescence intensity enzyme assay, Pro-Phe-Arg-AMC substrate)
Type: biochemical
Details: Pro-Phe-Arg-AMC substrate
Protocol: Test of the inhibitory activities of the compounds of the present invention against plasma kallikrein (PKa), KLK1 and FXIa in vitro.
The final concentrations of enzyme protein and Pro-Phe-Arg-AMC in the reaction mixture were 10 nM and 60 µM, respectively. The starting concentration of the positive reference substance Avoralstat was 100 nM, 3-fold dilution, 10 + 0 dose. 0.05 µL of compound in 100% DMSO was delivered to a 384-well plate by an acoustic liquid delivery technique (Echo665; nanoliter range). Compound duplex test. […] IC50 values and nonlinear regression curve fitting were obtained using GraphPad Prism software.

[1] = plasma kallikrein enzyme assay, read-out: PKa IC50

T1 sequence (P03952 391-638 limits assumed): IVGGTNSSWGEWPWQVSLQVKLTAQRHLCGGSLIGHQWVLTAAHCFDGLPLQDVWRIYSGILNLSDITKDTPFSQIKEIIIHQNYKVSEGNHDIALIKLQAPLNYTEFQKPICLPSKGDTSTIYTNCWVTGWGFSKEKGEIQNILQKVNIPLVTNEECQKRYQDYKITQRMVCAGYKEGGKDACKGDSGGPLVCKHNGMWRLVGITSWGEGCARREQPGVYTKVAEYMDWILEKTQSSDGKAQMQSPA
T1 sequence (P03952 20-390 partner limits assumed): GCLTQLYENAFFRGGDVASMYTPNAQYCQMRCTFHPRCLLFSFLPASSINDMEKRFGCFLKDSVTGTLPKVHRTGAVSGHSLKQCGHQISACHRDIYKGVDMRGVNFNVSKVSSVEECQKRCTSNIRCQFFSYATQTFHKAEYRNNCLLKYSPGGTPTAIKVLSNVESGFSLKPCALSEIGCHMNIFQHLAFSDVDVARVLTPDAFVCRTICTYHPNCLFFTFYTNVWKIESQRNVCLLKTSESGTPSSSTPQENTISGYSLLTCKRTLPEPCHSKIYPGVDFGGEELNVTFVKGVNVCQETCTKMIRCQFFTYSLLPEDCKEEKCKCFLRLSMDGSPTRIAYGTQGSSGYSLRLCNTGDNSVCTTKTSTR

| Compound | IC50 [1] | IC50 (PKa IC50, plasma kallikrein enzyme assay) [µM] |
| --- | --- | --- |
| COc1ccc(F)c(CNC(=O)c2cn(Cc3ccc(Cn4cc(F)ccc4=O)cc3)nc2C2CC(F)(F)C2)c1F [Compound 209, N-(2,6-difluoro-3-methoxybenzyl)-3-(3,3-difluorocyclobutyl)-1-(4-((5-fluoro-2-oxopyridin-1(2H)yl)methyl)benzyl)-1H-pyrazole-4-carboxamide] | 0.0106 µM and > 0.1 µM |  |
| COCc1nn(Cc2ccc(-n3ccccc3=O)cc2)cc1C(=O)NCc1cc2ccncc2[nH]1 [Compound 97] | 0.503 µM |  |
| COCc1nn(Cc2ccc(N3CC4C(C3)C4(F)F)cc2C#N)cc1C(=O)NCc1nc2c(s1)CNCC2 (stereo not drawn) [Compound 129] | 0.406 µM |  |
| COc1ccnc(CNC(=O)c2cn(Cc3ccc(Cn4ccccc4=O)cc3)nc2N2CC[C@@H](OC)C2)c1F [Compound 171] | 0.086 µM |  |
| COc1ccnc(CNC(=O)c2cn(Cc3ccc(Cn4ccccc4=O)cc3)nc2-c2cnc(O)nc2)c1F [Compound 165] | 0.0345 µM |  |
| COCc1nn(Cc2ccc(Cn3ccccc3=O)cc2)cc1C(=O)NCc1ncc2c(n1)CNC2 [Compound 144] |  | 0.0259 |
| COc1ccnc(CNC(=O)c2cn(Cc3ccc(Cn4ccccc4=O)cc3)nc2CN2C[C@H](C)O[C@@H](C)C2)c1F [Compound 309] | 0.273 µM |  |
| O=C(NCc1cc2cnccc2[nH]1)c1cn(Cc2ccc(Cn3ccccc3=O)cc2)nc1C(F)(F)F [Compound 123] | 0.0295 µM |  |
| Cc1cc(C(=N)N)nc(C)c1CNC(=O)c1cnn(Cc2ccc(CC3CC3)cc2)c1 [Compound 323] | 0.0656 µM |  |
| Cc1nc(N)nc(C)c1CNC(=O)c1ncn(Cc2ccc(Cn3cc(F)ccc3=O)cc2)n1 [Compound 26] | 0.699 µM |  |
| O=C(NCc1cc2cnccc2[nH]1)c1cn(Cc2ccc(Oc3ccccc3)cc2)nc1C(F)(F)F [Compound 115] | > 0.1 µM |  |
| COCc1nn(Cc2ccc(Cn3ccc4ncccc43)cc2)cc1C(=O)NCc1nccc(OC)c1F [Compound 98] | 0.245 µM |  |
| N=C(N)c1cnc(CNC(=O)c2cnn(Cc3ccc(CC4CC4)cc3)c2)cn1 [Compound 330] | 0.855 µM |  |
| COCc1nn(Cc2ccc(Cn3ccccc3=O)cc2)cc1C(=O)NCc1cn2ccc(Cl)c(F)c2n1 [Compound 120] | > 1 µM |  |
| COCc1nn(Cc2ccc(-n3ccccc3=O)cc2)cc1C(=O)NCc1nc2c(s1)CNCC2 [Compound 107] | > 0.1 µM |  |
| Cc1[nH]c(C(=O)NCc2cc3cnccc3[nH]2)c(C)c1Cc1ccc(Cn2ccccc2=O)cc1 [Compound 148] | 0.347 µM |  |
| CCc1cc(N2CC3C(C2)C3(F)F)ccc1Cn1cc(C(=O)NCc2cc3cnccc3[nH]2)c(COC)n1 (stereo not drawn) [Compound 195] | 0.192 µM |  |
| Nc1nc2ccc(CNC(=O)c3cnn(Cc4ccc(Cn5ccccc5=O)cc4)c3)cc2s1 [Compound 215] | 0.797 µM |  |
| Nc1cc2c(cn1)[C@@H](NC(=O)c1ncn(Cc3cn4cc(C5CC5)ccc4n3)n1)CC2 [Compound 46] | > 0.1 µM |  |
| O=C(NCc1nccc(NC2CCC2)c1F)c1cn(Cc2ccc(Cn3ccccc3=O)cc2)nc1N1CC(F)(F)C1 [Compound 278] | > 1 µM |  |
| COc1ccc(C#N)c(CNC(=O)c2cn(Cc3ccc(Cn4ccccc4=O)cc3)nc2C(F)(F)F)c1C [Compound 202] | > 1 µM |  |

| Compound | IC50 [1] | IC50 (PKa IC50, plasma kallikrein enzyme assay) [µM] |
| --- | --- | --- |
| CC[C@@H](COC)OCc1nn(Cc2ccc(Cn3ccccc3=O)cc2)cc1C(=O)NCc1nccc(OC)c1F [Compound 172] | 0.113 µM |  |
| Nc1cc2c(cn1)[C@H](NC(=O)c1ncn(Cc3cn4cc(C5CC5)ccc4n3)n1)CC2 [Compound 45] | > 0.1 µM |  |
| Cc1cc(N)nc(C)c1CNC(=O)c1nc(Cc2ccc(Cn3ccccc3=O)cc2)ns1 [Compound 84] | 0.0647 µM |  |
| O=C(NCc1nccc(NCC2CC2)c1F)c1cn(Cc2ccc(Cn3ccccc3=O)cc2)nc1N1CC(F)(F)C1 [Compound 277] | > 1 µM |  |
| COc1ccc(C#N)c(CNC(=O)c2cnn(Cc3ccc(Cn4ccccc4=O)cc3)c2)c1C [Compound 189] | 0.18 µM |  |
| O=C(NCc1nccc2[nH]ccc12)c1cn(Cc2ccc(Cn3ccccc3=O)cc2)nc1C1COC1 [Compound 325] | 0.0386 µM |  |
| COCc1nn(Cc2ccc(CN3C(=O)C4(CC4)c4ccc(F)cc43)cc2)cc1C(=O)NCc1nccc(OC)c1F [Compound 138] | > 1 µM |  |
| COCc1nn(Cc2ccc(N3CC4C(C3)C4(F)F)cc2C#N)cc1C(=O)NCc1cn2c(n1)CNCC2 (stereo not drawn) [Compound 104] | > 0.1 µM |  |
| COc1ccnc(CNC(=O)c2[nH]cc(Cc3ccc(Cn4ccccc4=O)cc3)c2C)c1F [Compound 151] | 0.544 µM |  |
| COCc1nn(Cc2ccc(Cn3ccccc3=O)cc2)cc1C(=O)NCc1[nH]c2cnccc2c1Cl [Compound 136] | 0.0362 µM |  |
| COc1ccnc(CNC(=O)c2cc(Cc3ccc(Cn4ccccc4=O)cc3)cn2C)c1F [Compound 88] | 0.0201 µM |  |
| O=C(NCc1nccc(C2CC2)c1F)c1cn(Cc2ccc(Cn3ccccc3=O)cc2)nc1C1COC1 [Compound 339] | 0.0316 µM |  |
| CNC(=N)c1ccc(CNC(=O)c2cnn(Cc3ccc(CC4CC4)cc3)c2)cc1 [Compound 271] | 0.855 µM |  |
| COCc1nn(Cc2ccc(Oc3ccccc3)cc2)cc1C(=O)NCc1nccc(OC)c1F [Compound 117] | > 1 µM |  |
| O=C(NCc1cc2cnccc2[nH]1)c1nc(Cc2ccc(Cn3ccccc3=O)cc2)ns1 [Compound 122] | 0.124 µM |  |
| Nc1cc2c(cn1)[C@@H](NC(=O)c1ncn(Cc3ccc(Cn4ccccc4=O)cc3)n1)CO2 [Compound 82] | 0.0266 µM |  |
| N=C(N)c1cnc(CNC(=O)c2cnn(Cc3ccc(CC4CC4)cc3)c2)nc1 [Compound 329] | 0.0424 µM |  |
| COCc1nn(Cc2ccc(Oc3ccccc3)cc2)cc1C(=O)NCc1ccn2ccnc2c1 [Compound 141] | > 1 µM |  |
| COCc1nn(Cc2ccc(Cn3c(=O)ccc4ccccc43)cc2)cc1C(=O)NCc1nccc(OC)c1F [Compound 159] | 0.0938 µM |  |
| O=C(NCc1cc2ccncc2[nH]1)c1cn(Cc2ccc(Oc3ccccc3)cc2)nc1C(F)(F)F [Compound 186] | 0.709 µM |  |
| COCc1nn(Cc2ccc(Cn3ccccc3=O)cc2)cc1C(=O)NCc1ccc2nccn2c1 [Compound 126] | 0.229 µM |  |

The remaining compounds from weak to strong by IC50 [1], led by results:

| IC50 [1] | IC50 (PKa IC50, plasma kallikrein enzyme assay) [µM] | Compound |
| --- | --- | --- |
| 0.0174 µM |  | Cn1cnc2c1CC[C@H]2NC(=O)c1nn(Cc2ccc(Cn3ccccc3=O)cc2)cc1C(F)F [Compound 58] |
| 0.0153 µM |  | Cn1c(CNC(=O)c2cn(Cc3ccc(Cn4ccccc4=O)cc3)nc2C(F)(F)F)cc2cnccc21 [Compound 196] |
| 0.015 µM |  | COc1ccc(F)c(CNC(=O)c2cn(Cc3ccc(Cn4cc(F)ccc4=O)cc3)nc2[C@H](C)C2COC2)c1F [Compound 179] |
| 0.0128 µM |  | COCC1CN(c2nn(Cc3ccc(Cn4ccccc4=O)cc3)cc2C(=O)NCc2nccc(OC)c2F)C1 [Compound 306] |
| 0.0127 µM |  | COCc1nn(Cc2ccc(Cn3ccccc3=O)cc2)cc1C(=O)NCc1cc2cnccc2n1C [Compound 161] |
| 0.0126 µM |  | COc1ccc(F)c(CNC(=O)c2cn(Cc3ccc(Cn4ccccc4=O)cc3)nc2COC2CCC2)c1F [Compound 240] |
| 0.0126 µM |  | COCc1nn(Cc2ccc(Cn3ccccc3=O)cc2)cc1C(=O)NCc1cc2cnccc2n1C [Compound 139] |
| 0.0119 µM |  | COc1ccnc(CNC(=O)c2cn(Cc3ccc(Cn4ccccc4=O)cc3)nc2CN2CCCC2=O)c1F [Compound 169] |
| 0.0119 µM |  | COCC1(F)CN(c2nn(Cc3ccc(Cn4ccccc4=O)cc3)cc2C(=O)NCc2nccc(OC)c2F)C1 [Compound 223] |
| 0.0109 µM |  | COc1ccc(F)c(CNC(=O)c2cn(Cc3ccc(Cn4cc(F)ccc4=O)cc3)nc2OCCF)c1F [Compound 226] |
| 0.0105 µM |  | COc1ccc(F)c(CNC(=O)c2cn(Cc3ccc(Cn4cc(F)ccc4=O)cc3)nc2COCC2(C)COC2)c1F [Compound 285] |
| 0.00973 µM |  | COc1ccc(F)c(CNC(=O)c2cn(Cc3ccc(Cn4ccccc4=O)cc3)nc2N2CC(F)(F)C2)c1F [Compound 233] |
| 0.00915 µM |  | COc1ccnc(CNC(=O)c2cn(Cc3ccc(Cn4ccccc4=O)cc3)nc2CN2CC3(COC3)C2)c1F [Compound 238] |
| 0.00868 µM |  | COCCOCc1nn(Cc2ccc(Cn3ccccc3=O)cc2)cc1C(=O)NCc1nccc(OC)c1F [Compound 162] |
| 0.00789 µM |  | COc1ccnc(CNC(=O)c2cn(Cc3ccc(Cn4ccccc4=O)cc3)nc2COC2COC2)c1F [Compound 249] |
| 0.00497 µM |  | COc1ccc(F)c(CNC(=O)c2cn(Cc3ccc(Cn4cc(F)ccc4=O)cc3)nc2COCC2(F)COC2)c1F [Compound 234] |
| 0.00462 µM |  | COc1ccc(Cl)c(CNC(=O)c2cn(Cc3ccc(Cn4ccccc4=O)cc3)nc2N2CC(F)(F)C2)c1F [Compound 290] |
| 0.00457 µM |  | COc1ccnc(CNC(=O)c2cn(Cc3ccc(Cn4ccccc4=O)cc3)nc2N2CC(OC(C)C)C2)c1F [Compound 307] |
| 0.00349 µM |  | COc1ccnc(CNC(=O)c2cn(Cc3ccc(Cn4ccccc4=O)cc3)nc2CN2C(=O)CCCC2=O)c1F [Compound 308] |
| 0.00341 µM |  | COc1ccnc(COC(=O)c2cn(Cc3ccc(Cn4cc(F)ccc4=O)cc3)nc2NC2(C)COC2)c1F [Compound 284] |
| 0.00315 µM |  | N=C(N)c1ccc(CNC(=O)c2cnn(Cc3c(Cl)cc(OCC4CC4)cc3Cl)c2)cc1 [Compound 359] |
| 0.00309 µM |  | COc1ccnc(CNC(=O)c2cn(Cc3ccc(Cn4ccccc4=O)cc3)nc2C(F)(F)F)c1F [Compound 90] |
| 0.00285 µM |  | COc1ccc(F)c(CNC(=O)c2cn(Cc3ccc(Cn4ccccc4=O)cc3)nc2CN2C(=O)CCC2=O)c1F [Compound 248] |
| 0.00278 µM |  | COc1ccc(F)c(COC(=O)c2cn(Cc3ccc(Cn4cc(F)ccc4=O)cc3)nc2NC2(C)COC2)c1F [Compound 237] |
| 0.00264 µM |  | Cc1cc(N)nc(C)c1CNC(=O)c1cnn(Cc2ccc(CC3CC3)cc2)c1 [Compound 280] |
| 0.00264 µM |  | COc1ccnc(CNC(=O)c2cn(Cc3ccc(Cn4ccccc4=O)cc3)nc2C2CC2(F)F)c1F (stereo not drawn) [Compound 216] |
| 0.002 µM |  | CC(C)Cc1ccc(Cn2cc(C(=O)NCc3ccc(C(=N)N)cc3)cn2)cc1 [Compound 312] |
